Results published in ChEMBL document CHEMBL4507283, “Data for DCP probe BI-1935” (2021).

Tests used:
[1] = molecular target: Voltage-dependent L-type calcium channel subunit alpha-1C (Rattus norvegicus, UniProt P22002); assay: CA+/TLATATG Eurofins-Panlabs selectivity data (BI); parameters: species or system Cavia porcellus; mode of action antagonist; conditions: guinea pig, atrial tissue, read-out: % Ctrl
[2] = molecular target: Carbonic anhydrase 6 (Homo sapiens) (UniProt P23280); assay: CANHYDRASE Eurofins-Panlabs selectivity data (BI); conditions: Compound concentration 10.0 uM
[3] = molecular target: D(4) dopamine receptor (Homo sapiens) (UniProt P21917); assay: D4.2/H Eurofins-Panlabs selectivity data (BI); conditions: Compound concentration 10.0 uM
Sequence of D(4) dopamine receptor (Homo sapiens) (P21917 whole entry): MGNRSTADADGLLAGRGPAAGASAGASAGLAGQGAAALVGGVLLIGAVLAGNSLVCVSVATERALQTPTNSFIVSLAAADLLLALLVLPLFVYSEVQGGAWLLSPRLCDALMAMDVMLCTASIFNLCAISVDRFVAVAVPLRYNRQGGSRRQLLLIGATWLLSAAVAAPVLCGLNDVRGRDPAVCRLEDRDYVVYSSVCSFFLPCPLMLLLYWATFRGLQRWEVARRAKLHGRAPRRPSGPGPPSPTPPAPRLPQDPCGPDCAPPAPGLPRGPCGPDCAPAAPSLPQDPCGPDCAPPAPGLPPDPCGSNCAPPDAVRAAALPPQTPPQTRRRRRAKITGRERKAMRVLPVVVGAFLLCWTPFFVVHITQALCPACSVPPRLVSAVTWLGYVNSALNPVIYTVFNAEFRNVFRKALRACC

[4] = molecular target: Interstitial collagenase (Homo sapiens) (UniProt P03956); assay: PEP_MMP-1 Eurofins-Panlabs selectivity data (BI); conditions: Compound concentration 10.0 uM
[5] = molecular target: T1, Thromboxane-A synthase (Homo sapiens) (UniProt P24557); assay: THRO SYN(HU) Eurofins-Panlabs selectivity data (BI)
T1 sequence (whole entry): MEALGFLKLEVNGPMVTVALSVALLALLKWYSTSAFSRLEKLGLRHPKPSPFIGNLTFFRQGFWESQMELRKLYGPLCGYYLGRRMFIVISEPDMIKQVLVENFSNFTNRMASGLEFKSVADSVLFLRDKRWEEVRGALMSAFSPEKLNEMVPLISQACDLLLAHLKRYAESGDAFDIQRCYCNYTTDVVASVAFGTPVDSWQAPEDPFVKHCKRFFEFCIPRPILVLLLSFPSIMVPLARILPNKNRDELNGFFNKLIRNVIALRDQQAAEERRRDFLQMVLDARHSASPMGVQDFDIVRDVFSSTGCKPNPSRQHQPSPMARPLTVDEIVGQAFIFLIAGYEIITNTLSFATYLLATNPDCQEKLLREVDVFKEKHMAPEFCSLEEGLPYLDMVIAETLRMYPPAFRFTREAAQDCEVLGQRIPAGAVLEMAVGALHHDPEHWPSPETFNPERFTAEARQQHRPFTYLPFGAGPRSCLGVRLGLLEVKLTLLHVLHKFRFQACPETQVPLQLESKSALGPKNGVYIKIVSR

[6] = molecular target: Calcium/calmodulin-dependent protein kinase type 1G (Homo sapiens) (UniProt Q96NX5); conditions: Compound concentration 1000.0 nM
[7] = molecular target: Calcium/calmodulin-dependent protein kinase type II subunit beta (Homo sapiens) (UniProt Q13554); conditions: Compound concentration 1000.0 nM
[8] = molecular target: Calcium/calmodulin-dependent protein kinase kinase 2 (Homo sapiens) (UniProt Q96RR4); conditions: Compound concentration 1000.0 nM
[9] = molecular target: Cyclin-dependent kinase 4 (Homo sapiens) (UniProt P11802); conditions: Compound concentration 1000.0 nM
Sequence of Cyclin-dependent kinase 4 (Homo sapiens) (P11802 whole entry): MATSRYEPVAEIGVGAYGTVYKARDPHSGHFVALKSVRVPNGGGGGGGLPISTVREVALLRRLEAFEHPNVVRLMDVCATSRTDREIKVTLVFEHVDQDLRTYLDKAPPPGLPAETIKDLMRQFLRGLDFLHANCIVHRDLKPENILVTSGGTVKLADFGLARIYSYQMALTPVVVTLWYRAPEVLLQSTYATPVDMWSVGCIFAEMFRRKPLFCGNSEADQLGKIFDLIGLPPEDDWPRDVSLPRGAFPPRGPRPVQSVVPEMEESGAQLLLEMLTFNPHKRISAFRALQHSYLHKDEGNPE

[10] = molecular target: Cyclin-dependent kinase 8 (Homo sapiens) (UniProt P49336); conditions: Compound concentration 1000.0 nM
[11] = molecular target: Dual specificity tyrosine-phosphorylation-regulated kinase 1A (Homo sapiens) (UniProt Q13627); conditions: Compound concentration 1000.0 nM
[12] = molecular target: Epidermal growth factor receptor (Homo sapiens) (UniProt P00533); conditions: Compound concentration 1000.0 nM
[13] = molecular target: Ephrin type-A receptor 6 (Homo sapiens) (UniProt Q9UF33); conditions: Compound concentration 1000.0 nM
[14] = molecular target: Mitogen-activated protein kinase 4 (Homo sapiens) (UniProt P31152); conditions: Compound concentration 1000.0 nM
[15] = molecular target: Mitogen-activated protein kinase 15 (Homo sapiens) (UniProt Q8TD08); conditions: Compound concentration 1000.0 nM
[16] = molecular target: Vascular endothelial growth factor receptor 3 (Homo sapiens) (UniProt P35916); conditions: Compound concentration 1000.0 nM
[17] = molecular target: Hormonally up-regulated neu tumor-associated kinase (Homo sapiens) (UniProt P57058); conditions: Compound concentration 1000.0 nM
[18] = molecular target: Interleukin-1 receptor-associated kinase 1 (Homo sapiens) (UniProt P51617); conditions: Compound concentration 1000.0 nM
[19] = molecular target: Interleukin-1 receptor-associated kinase 4 (Homo sapiens) (UniProt Q9NWZ3); conditions: Compound concentration 1000.0 nM
[20] = molecular target: Serine/threonine-protein kinase 10 (Homo sapiens) (UniProt O94804); conditions: Compound concentration 1000.0 nM
[21] = molecular target: Serine/threonine-protein kinase MAK (Homo sapiens) (UniProt P20794); conditions: Compound concentration 1000.0 nM
Sequence of Serine/threonine-protein kinase MAK (Homo sapiens) (P20794 whole entry): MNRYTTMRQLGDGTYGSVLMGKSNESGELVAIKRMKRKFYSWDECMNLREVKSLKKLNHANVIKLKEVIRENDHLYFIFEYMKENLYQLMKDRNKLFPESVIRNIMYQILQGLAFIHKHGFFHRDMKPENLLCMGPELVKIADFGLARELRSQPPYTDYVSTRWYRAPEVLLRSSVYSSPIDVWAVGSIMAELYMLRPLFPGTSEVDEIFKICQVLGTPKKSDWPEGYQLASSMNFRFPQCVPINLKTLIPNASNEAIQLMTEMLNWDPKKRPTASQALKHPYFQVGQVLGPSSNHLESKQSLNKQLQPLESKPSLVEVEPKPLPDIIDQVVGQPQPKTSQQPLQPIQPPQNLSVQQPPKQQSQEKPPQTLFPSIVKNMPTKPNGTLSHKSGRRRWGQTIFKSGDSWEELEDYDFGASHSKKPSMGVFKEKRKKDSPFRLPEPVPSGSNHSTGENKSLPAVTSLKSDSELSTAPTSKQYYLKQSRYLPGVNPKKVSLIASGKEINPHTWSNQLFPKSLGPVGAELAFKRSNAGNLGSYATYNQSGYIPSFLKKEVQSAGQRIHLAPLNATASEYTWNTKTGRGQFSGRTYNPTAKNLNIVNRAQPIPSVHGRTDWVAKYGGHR

[22] = molecular target: Dual specificity mitogen-activated protein kinase kinase 2 (Homo sapiens) (UniProt P36507); conditions: Compound concentration 1000.0 nM
[23] = molecular target: Dual specificity mitogen-activated protein kinase kinase 7 (Homo sapiens) (UniProt O14733); conditions: Compound concentration 1000.0 nM
[24] = molecular target: Myosin light chain kinase (Homo sapiens) (UniProt Q32MK0); conditions: Compound concentration 1000.0 nM
[25] = molecular target: Myosin light chain kinase 2, skeletal/cardiac muscle (Homo sapiens) (UniProt Q9H1R3); conditions: Compound concentration 1000.0 nM
[26] = molecular target: Serine/threonine-protein kinase Nek4 (Homo sapiens) (UniProt P51957); conditions: Compound concentration 1000.0 nM
[27] = molecular target: Mitogen-activated protein kinase kinase kinase 14 (Homo sapiens) (UniProt Q99558); conditions: Compound concentration 1000.0 nM
[28] = molecular target: Mitogen-activated protein kinase 13 (Homo sapiens) (UniProt O15264); conditions: Compound concentration 1000.0 nM
[29] = molecular target: Serine/threonine-protein kinase PAK 1 (Homo sapiens) (UniProt Q13153); conditions: Compound concentration 1000.0 nM
[30] = molecular target: Serine/threonine-protein kinase PAK 2 (Homo sapiens) (UniProt Q13177); conditions: Compound concentration 1000.0 nM
[31] = molecular target: Protein kinase C iota type (Homo sapiens) (UniProt P41743); conditions: Compound concentration 1000.0 nM
[32] = molecular target: Serine/threonine-protein kinase D1 (Homo sapiens) (UniProt Q15139); conditions: Compound concentration 1000.0 nM
[33] = molecular target: cGMP-dependent protein kinase 2 (Homo sapiens) (UniProt Q13237); conditions: Compound concentration 1000.0 nM
[34] = molecular target: SRSF protein kinase 2 (Homo sapiens) (UniProt P78362); conditions: Compound concentration 1000.0 nM
Sequence of SRSF protein kinase 2 (Homo sapiens) (P78362 whole entry, looked up): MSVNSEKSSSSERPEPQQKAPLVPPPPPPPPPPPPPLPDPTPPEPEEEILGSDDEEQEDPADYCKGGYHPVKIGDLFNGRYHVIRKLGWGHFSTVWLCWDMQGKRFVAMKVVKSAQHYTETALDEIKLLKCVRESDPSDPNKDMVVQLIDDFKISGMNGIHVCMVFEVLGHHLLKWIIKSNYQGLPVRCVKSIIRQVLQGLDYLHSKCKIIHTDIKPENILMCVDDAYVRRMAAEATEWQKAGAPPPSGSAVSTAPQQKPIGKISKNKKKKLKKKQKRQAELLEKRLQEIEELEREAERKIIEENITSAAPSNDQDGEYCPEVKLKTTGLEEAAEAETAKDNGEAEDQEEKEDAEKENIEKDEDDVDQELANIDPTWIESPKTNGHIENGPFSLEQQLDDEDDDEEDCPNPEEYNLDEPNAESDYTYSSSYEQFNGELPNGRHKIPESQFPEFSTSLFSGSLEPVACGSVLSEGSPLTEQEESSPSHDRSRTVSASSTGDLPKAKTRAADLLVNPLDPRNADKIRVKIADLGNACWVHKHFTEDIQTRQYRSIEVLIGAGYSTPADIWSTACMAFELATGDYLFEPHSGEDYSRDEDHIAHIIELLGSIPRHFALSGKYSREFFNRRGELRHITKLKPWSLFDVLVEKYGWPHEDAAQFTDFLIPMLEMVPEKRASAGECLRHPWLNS

[35] = molecular target: NT-3 growth factor receptor (Homo sapiens) (UniProt Q16288); conditions: Compound concentration 1000.0 nM
Sequence of NT-3 growth factor receptor (Homo sapiens) (Q16288 32-839 limits assumed): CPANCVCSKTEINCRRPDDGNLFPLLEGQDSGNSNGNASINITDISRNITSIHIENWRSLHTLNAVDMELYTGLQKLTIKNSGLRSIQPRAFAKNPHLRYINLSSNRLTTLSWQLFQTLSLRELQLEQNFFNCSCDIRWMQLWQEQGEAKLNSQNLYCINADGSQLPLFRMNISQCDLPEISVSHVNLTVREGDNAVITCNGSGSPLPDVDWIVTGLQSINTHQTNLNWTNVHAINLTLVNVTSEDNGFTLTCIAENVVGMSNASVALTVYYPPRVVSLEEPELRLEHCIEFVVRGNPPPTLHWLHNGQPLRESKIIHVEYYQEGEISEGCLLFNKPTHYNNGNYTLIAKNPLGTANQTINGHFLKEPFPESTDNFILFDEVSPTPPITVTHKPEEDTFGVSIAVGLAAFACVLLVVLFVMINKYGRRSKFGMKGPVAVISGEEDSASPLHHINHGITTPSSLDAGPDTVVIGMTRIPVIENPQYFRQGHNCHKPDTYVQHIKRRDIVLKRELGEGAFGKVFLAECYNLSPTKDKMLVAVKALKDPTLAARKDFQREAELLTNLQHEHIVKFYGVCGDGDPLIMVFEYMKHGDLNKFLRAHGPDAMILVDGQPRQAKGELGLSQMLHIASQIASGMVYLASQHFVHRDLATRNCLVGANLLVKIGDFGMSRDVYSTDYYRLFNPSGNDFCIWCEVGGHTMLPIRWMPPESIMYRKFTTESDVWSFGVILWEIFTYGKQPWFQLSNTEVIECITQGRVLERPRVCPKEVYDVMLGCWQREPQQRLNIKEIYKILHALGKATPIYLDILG

[36] = molecular target: Mu-type opioid receptor (Homo sapiens) (UniProt P35372); conditions: Compound concentration 10.0 uM

Sequence of Voltage-dependent L-type calcium channel subunit alpha-1C (P22002 whole entry): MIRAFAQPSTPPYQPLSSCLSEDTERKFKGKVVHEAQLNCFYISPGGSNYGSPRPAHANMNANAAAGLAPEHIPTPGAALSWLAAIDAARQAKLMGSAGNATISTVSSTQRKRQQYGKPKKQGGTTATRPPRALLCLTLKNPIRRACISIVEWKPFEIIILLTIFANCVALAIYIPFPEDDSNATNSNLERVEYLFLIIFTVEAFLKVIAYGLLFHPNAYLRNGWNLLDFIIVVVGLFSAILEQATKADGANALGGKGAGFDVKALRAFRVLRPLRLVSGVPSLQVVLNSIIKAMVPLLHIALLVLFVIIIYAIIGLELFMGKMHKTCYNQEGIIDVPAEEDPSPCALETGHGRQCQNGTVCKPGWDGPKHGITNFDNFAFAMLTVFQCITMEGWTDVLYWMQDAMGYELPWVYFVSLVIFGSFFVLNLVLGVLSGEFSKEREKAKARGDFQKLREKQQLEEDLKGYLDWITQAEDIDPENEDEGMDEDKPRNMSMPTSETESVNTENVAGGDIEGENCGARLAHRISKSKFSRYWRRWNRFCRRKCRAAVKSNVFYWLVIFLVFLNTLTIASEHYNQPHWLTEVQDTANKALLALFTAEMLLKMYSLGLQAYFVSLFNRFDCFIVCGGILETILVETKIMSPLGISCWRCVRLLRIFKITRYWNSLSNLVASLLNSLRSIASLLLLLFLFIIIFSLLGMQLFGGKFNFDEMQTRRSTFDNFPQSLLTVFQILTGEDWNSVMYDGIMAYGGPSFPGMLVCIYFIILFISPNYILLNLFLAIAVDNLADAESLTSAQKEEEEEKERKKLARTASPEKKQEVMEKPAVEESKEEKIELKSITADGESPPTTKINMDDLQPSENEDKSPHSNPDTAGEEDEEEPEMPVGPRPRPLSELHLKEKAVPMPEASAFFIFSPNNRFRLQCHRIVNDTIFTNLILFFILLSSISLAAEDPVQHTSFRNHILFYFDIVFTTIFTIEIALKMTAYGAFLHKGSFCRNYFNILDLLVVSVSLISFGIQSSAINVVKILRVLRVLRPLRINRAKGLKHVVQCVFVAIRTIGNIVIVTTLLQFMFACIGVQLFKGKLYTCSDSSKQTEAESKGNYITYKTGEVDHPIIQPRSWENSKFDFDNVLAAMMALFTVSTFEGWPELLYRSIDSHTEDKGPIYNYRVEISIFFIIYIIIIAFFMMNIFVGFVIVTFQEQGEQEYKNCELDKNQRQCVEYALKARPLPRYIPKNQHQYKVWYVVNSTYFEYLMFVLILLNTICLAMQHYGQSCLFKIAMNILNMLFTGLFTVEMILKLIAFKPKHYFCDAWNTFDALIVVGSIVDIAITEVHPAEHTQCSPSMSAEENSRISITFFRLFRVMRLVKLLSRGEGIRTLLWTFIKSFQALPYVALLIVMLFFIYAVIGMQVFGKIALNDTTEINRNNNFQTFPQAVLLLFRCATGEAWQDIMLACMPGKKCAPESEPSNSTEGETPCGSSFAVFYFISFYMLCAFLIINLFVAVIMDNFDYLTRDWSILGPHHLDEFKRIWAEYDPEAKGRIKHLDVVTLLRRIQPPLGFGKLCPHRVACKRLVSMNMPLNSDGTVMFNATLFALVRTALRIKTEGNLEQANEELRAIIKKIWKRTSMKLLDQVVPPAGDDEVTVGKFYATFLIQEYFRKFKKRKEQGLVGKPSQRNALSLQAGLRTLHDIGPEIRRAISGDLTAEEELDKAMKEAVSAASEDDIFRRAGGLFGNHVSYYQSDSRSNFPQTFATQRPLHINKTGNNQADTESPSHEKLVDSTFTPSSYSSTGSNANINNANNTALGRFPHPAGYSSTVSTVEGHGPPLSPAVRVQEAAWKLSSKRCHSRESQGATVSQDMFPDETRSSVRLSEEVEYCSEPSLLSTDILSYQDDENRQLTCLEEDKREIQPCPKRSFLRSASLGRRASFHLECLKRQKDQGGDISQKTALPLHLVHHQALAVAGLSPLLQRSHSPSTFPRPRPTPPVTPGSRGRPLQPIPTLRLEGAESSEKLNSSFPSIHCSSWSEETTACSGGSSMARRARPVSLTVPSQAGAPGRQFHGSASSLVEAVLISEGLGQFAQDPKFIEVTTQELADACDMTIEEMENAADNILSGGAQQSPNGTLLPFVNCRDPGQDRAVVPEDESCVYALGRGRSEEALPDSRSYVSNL

SMILES: CCOCCn1cc(C(=O)Nc2ccc(-n3nc(-c4cccnc4)cc3C(F)(F)F)cn2)ccc1=O [BI 1935]
- activity at 1 µM ([1]; compound concentration 1 uM): 86% (not active)
- activity at 3 µM ([1]; compound concentration 3 uM): 68% (not active)
- activity at 10 µM ([1]; compound concentration 10 uM): 25%
- residual activity [2]: 96%
- residual activity [3]: 103%
- residual activity [4]: 100%
- residual activity ([5]; Compound concentration 0.03 uM): 86%
- residual activity ([5]; Compound concentration 0.1 uM): 57%
- residual activity ([5]; Compound concentration 0.3 uM): 27%
- residual activity ([5]; Compound concentration 1.0 uM): 13%
- residual activity ([5]; Compound concentration 3.0 uM): 2%
- residual activity ([5]; Compound concentration 10.0 uM): 4%
- residual activity [6]: 100%
- residual activity [7]: 90%
- residual activity [8]: 100%
- residual activity [9]: 87%
- residual activity [10]: 100%
- residual activity [11]: 77%
- residual activity [12]: 100%
- residual activity [13]: 93%
- residual activity [14]: 100%
- residual activity [15]: 100%
- residual activity [16]: 92%
- residual activity [17]: 93%
- residual activity [18]: 84%
- residual activity [19]: 96%
- residual activity [20]: 100%
- residual activity [21]: 89%
- residual activity [22]: 94%
- residual activity [23]: 85%
- residual activity [24]: 97%
- residual activity [25]: 89%
- residual activity [26]: 80%
- residual activity [27]: 69%
- residual activity [28]: 97%
- residual activity [29]: 96%
- residual activity [30]: 84%
- residual activity [31]: 73%
- residual activity [32]: 100%
- residual activity [33]: 100%
- residual activity [34]: 100%
- residual activity [35]: 100%
- inhibition [36]: 2.68%
